Test results reported in ChEMBL document CHEMBL5291721, “A preclinical secondary pharmacology resource illuminates target-adverse drug reaction associations of marketed drugs” (Nat Commun, 2023).

What was measured:
Thromboxane A2 receptor = target: T1, Thromboxane A2 receptor (Homo sapiens, UniProt P21731)
T1 sequence (P21731 whole entry): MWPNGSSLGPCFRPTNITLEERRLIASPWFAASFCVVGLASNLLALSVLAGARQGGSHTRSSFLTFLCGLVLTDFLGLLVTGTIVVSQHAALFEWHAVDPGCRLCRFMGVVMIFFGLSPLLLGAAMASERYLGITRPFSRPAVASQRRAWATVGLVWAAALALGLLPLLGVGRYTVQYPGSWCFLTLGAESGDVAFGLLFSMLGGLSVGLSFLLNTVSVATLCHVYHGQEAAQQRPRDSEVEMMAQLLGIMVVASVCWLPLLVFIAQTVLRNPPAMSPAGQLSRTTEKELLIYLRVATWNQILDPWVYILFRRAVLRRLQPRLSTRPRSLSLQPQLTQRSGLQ

[1] = target: T2, Alpha-2C adrenergic receptor (Homo sapiens, UniProt P18825); format: functional
T2 sequence (P18825 whole entry): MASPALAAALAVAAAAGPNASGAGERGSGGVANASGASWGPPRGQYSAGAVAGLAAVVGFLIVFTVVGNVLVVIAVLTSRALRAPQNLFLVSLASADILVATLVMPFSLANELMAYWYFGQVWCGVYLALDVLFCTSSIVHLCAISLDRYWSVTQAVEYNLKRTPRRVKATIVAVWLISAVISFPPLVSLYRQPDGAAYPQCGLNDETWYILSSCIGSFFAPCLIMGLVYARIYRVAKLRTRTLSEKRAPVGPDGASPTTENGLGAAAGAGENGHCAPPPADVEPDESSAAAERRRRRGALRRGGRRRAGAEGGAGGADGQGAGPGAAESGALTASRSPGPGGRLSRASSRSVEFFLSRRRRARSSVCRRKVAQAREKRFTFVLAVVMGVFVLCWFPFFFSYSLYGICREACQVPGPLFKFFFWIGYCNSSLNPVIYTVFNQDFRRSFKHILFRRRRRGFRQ

Histamine H2 receptor = Histamine H2 receptor (Homo sapiens, UniProt P25021); format: functional, cell-based
Histamine H2 receptor, sequence (P25021 whole entry): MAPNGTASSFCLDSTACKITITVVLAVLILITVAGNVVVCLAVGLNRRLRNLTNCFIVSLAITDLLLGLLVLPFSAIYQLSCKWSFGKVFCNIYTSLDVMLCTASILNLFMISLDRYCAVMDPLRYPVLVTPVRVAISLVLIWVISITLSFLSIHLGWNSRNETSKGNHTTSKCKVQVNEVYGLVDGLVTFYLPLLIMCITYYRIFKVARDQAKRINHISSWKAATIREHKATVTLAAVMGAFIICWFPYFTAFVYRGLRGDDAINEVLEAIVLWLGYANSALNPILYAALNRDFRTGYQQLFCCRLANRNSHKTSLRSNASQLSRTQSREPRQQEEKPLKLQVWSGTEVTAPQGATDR

[2] = target: T3, 5-hydroxytryptamine receptor 3A (Homo sapiens, UniProt P46098); format: functional
T3 sequence (P46098 whole entry): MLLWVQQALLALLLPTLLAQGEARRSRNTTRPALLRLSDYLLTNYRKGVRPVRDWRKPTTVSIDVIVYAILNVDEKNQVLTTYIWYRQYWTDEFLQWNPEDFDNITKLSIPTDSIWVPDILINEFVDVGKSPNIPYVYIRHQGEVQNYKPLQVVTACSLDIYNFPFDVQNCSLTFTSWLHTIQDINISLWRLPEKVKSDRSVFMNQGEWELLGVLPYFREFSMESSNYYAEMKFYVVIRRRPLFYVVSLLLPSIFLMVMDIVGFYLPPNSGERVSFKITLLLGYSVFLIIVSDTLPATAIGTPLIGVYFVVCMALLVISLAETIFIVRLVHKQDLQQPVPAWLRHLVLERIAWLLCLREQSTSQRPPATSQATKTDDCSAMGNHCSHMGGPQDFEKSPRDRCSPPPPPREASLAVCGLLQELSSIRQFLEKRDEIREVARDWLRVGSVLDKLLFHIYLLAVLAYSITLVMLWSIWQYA

[3] = target: T4, Muscarinic acetylcholine receptor M2 (Homo sapiens, UniProt P08172); format: functional, cell-based
T4 sequence (P08172 whole entry): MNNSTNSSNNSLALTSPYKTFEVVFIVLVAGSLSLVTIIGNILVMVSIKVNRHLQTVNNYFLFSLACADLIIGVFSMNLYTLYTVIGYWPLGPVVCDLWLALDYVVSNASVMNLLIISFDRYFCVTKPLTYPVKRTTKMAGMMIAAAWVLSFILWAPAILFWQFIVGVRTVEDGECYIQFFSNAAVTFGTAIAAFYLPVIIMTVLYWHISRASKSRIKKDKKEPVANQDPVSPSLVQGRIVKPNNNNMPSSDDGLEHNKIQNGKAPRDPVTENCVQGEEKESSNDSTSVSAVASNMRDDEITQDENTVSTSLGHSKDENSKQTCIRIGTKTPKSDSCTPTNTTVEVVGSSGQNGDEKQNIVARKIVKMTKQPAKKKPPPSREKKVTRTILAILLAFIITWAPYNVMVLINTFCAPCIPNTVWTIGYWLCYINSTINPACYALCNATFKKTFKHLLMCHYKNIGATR

[4] = target: T5, Cholecystokinin receptor type A (Homo sapiens, UniProt P32238)
T5 sequence (P32238 whole entry): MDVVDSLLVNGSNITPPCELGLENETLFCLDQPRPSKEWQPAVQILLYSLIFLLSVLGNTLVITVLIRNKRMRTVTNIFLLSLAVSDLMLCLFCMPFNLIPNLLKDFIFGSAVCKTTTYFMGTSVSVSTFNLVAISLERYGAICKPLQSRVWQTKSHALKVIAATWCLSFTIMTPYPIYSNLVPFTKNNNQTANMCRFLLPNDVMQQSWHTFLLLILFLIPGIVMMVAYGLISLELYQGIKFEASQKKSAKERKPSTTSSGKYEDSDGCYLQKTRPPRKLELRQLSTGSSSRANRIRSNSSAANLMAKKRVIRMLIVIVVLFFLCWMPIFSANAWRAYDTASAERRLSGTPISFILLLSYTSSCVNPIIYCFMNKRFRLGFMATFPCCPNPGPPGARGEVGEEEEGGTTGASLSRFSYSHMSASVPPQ

Motilin receptor = Motilin receptor (Homo sapiens, UniProt O43193)
Motilin receptor, sequence (O43193 whole entry): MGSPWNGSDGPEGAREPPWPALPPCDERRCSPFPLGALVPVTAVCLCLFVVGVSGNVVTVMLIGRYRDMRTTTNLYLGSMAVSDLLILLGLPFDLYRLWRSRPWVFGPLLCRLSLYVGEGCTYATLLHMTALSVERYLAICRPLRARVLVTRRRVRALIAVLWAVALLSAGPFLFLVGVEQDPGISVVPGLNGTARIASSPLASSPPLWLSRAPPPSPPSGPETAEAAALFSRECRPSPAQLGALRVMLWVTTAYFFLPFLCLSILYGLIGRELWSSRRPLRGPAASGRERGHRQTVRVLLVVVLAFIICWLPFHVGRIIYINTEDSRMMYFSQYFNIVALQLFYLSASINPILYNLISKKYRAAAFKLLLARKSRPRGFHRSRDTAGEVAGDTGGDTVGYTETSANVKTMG

[5] = target: T6, Type-1 angiotensin II receptor (Homo sapiens, UniProt P30556)
T6 sequence (P30556 whole entry): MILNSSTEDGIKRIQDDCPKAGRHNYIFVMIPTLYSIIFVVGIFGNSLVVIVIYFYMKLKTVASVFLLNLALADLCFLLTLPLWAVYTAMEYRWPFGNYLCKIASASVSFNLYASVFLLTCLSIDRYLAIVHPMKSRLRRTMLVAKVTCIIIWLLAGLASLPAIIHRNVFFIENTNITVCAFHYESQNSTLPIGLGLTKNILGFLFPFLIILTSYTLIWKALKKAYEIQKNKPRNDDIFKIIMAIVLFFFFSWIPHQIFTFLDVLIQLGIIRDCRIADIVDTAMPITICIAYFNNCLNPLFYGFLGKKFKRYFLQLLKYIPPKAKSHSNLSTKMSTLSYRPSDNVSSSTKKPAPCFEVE

Mu-type opioid receptor = Mu-type opioid receptor (Homo sapiens, UniProt P35372); experiment: biochemical; format: functional
Mu-type opioid receptor, sequence (P35372 whole entry): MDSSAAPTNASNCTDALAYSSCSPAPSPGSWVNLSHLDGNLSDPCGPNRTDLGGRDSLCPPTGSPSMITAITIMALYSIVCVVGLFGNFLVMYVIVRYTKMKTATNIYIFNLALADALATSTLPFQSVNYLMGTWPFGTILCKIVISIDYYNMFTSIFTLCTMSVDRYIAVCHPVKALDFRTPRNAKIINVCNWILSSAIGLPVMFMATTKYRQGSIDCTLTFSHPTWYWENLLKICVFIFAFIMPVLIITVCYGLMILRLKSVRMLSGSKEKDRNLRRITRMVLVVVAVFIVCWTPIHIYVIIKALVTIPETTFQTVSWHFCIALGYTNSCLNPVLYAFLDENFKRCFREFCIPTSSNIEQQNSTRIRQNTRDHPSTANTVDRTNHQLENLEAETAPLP

[6] = target: Gamma-aminobutyric acid receptor subunit alpha-1 (Rattus norvegicus, UniProt P62813)
Gamma-aminobutyric acid receptor subunit alpha-1, sequence (P62813 whole entry): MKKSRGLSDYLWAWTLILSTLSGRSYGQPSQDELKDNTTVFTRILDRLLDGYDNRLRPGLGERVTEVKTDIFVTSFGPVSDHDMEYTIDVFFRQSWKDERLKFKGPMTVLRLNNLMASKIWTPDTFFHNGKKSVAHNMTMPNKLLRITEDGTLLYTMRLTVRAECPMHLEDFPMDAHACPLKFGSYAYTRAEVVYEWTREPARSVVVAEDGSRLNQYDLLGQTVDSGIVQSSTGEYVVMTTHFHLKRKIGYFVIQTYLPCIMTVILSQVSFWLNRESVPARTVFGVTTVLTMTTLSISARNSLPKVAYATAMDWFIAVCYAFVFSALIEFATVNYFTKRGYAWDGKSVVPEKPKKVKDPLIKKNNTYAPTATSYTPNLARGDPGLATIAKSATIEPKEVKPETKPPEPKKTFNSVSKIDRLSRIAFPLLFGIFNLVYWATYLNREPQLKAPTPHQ
Further: assay procedure not described here.

| SMILES | AC50 (Thromboxane A2 receptor) [µM] | AC50 [1] [µM] | AC50 (Histamine H2 receptor) [µM] | AC50 [2] [µM] | AC50 [3] [µM] | AC50 [4] [µM] | AC50 (Motilin receptor) [µM] | AC50 [5] [µM] | AC50 (Mu-type opioid receptor) [µM] | AC50 [6] [µM] |
| --- | --- | --- | --- | --- | --- | --- | --- | --- | --- | --- |
| CC/C=C\C/C=C\C/C=C\CCCCCCCC(=O)O [LINOLENIC ACID] | > 30 | > 30 | > 30 | > 30 | > 30 | > 30 | > 30 | > 30 | > 30 | > 30 |
| O=C(O)Cc1cn(-c2ccccc2)nc1-c1ccc(Cl)cc1 [LONAZOLAC] | > 30 | > 30 | > 30 | > 30 | > 30 | > 30 | > 30 | > 30 | > 30 | > 30 |
| C#C[C@]1(O)CC[C@H]2[C@@H]3CCC4=CCCC[C@@H]4[C@H]3CC[C@@]21C [LYNESTRENOL] | > 30 | > 30 | > 30 | > 30 | > 30 | > 30 | > 30 | > 30 | > 30 | > 30 |
| CC1=CC(=O)c2ccccc2C1=O [MENADIONE] | > 10 | > 30 | > 30 | > 30 | > 10 | > 10 | > 10 | > 10 | > 30 | > 10 |
| C[C@]12CCC(=O)C=C1CC[C@@H]1[C@@H]2CC[C@@]2(C)[C@H]1CC[C@]2(C)O [METHYLTESTOSTERONE] | > 30 | > 30 | > 30 | > 30 | > 30 | > 30 | > 30 | > 30 | > 30 | > 30 |
| CCCCC(C)(O)C/C=C/[C@H]1[C@H](O)CC(=O)[C@@H]1CCCCCCC(=O)OC (stereo not given in full) [MISOPROSTOL] | > 30 | > 30 | > 30 | > 30 | > 30 | > 30 | > 30 | > 30 | > 30 | > 30 |
| O=C(OCCN1CCOCC1)c1cccnc1Nc1cccc(C(F)(F)F)c1 [MORNIFLUMATE] | > 30 | > 30 | > 30 | > 30 | > 30 | > 30 | > 30 | > 30 | > 30 | > 30 |
| COc1c(C)c2c(c(O)c1C/C=C(\C)CCC(=O)OCCN1CCOCC1)C(=O)OC2 [MYCOPHENOLATE MOFETIL] | > 30 | > 30 | > 30 | > 30 | > 30 | > 30 | > 30 | > 30 | > 30 | > 30 |
| CCCCCCCCOc1ccccc1C(=O)Nc1ccc(C(=O)OCC[N+](C)(CC)CC)cc1 [OTILONIUM BROMIDE] | > 30 | 8.2 | > 30 | > 30 | 16 | > 30 | 5.7 | 20 | > 30 | > 30 |
